From patent US20250092056A1, “URACIL DERIVATIVES HAVING VIRUS REPLICATION INHIBITORY ACTIVITY AND PHARMACEUTICAL COMPOSITION COMPRISING THE SAME” (Shionogi & Co., Ltd., priority 2022, published 2025)

These molecules were tested on SARS-CoV-2 (assay: Cytopathic effect (CPE) suppression effect confirmation test using HEK293T/ACE2-TMPRSS2 cells). Conditions: Severe acute respiratory syndrome coronavirus 2, HEK-293T, 72 h, read-out: EC50 (50% SARS-CoV-2 infected cell death inhibitory concentration), HEK293T/ACE2-TMPRSS2 cells, CPE suppression, CellTiter-Glo 2.0 after 3 days culture.
Format: cell-based

| SMILES | EC50 |
| --- | --- |
| N#CCn1c(N2Cc3ccccc3C2)c(C(=O)c2cc(F)c(F)c(F)c2)c(=O)n(-c2cncc(Cl)c2)c1=O [Compound I-165] | 0.228 µM |
| N#CCn1c(N2CC3(C2)CC(F)(F)C3)c(-c2ccc(F)c(Cl)c2)c(=O)n(-c2cncc(C(F)F)n2)c1=O [Compound I-208] | 0.00704 µM |
| N#CCn1c(N2CC3(C2)CC(F)(F)C3)c(-c2ccc(F)c(Cl)c2)c(=O)n(-c2cncc(Cl)c2)c1=O [Compound I-077] | 0.00166 µM |

Same assay, conditions: Severe acute respiratory syndrome coronavirus 2, HEK-293T, 72 h, read-out: EC50 (50% SARS-CoV-2 infected cell death inhibitory concentration), class, HEK293T/ACE2-TMPRSS2 cells, CPE suppression, CellTiter-Glo 2.0 after 3 days culture

| SMILES | EC50 |
| --- | --- |
| Cc1cncc(-n2c(=O)c(Cc3cc(F)c(F)c(F)c3)c(-c3ccc(C)c(C)c3)n(C(C)(C)C#N)c2=O)c1 [Compound I-065] | < 0.1 µM |
| N#CCn1c(N2CCC3(CC2)CNC(=O)O3)c(-c2ccc(F)c(Cl)c2)c(=O)n(-c2cncc(Cl)c2)c1=O [Compound I-067] | 0.1 to 1 µM |
| Cc1cc(-n2c(=O)c(-c3cc(F)c(F)c(Cl)c3)c(N3CC4(CCOCC4)C3)n(CC#N)c2=O)cc(=O)[nH]1 [Compound I-032] | 0.1 to 1 µM |
| Cc1cncc(-n2c(=O)c(Oc3cc(F)c(F)c(F)c3)c(Oc3cc(F)c(F)c(F)c3)n(CC#N)c2=O)c1 [Compound I-010] | 1 to 5 µM |
| N#CCn1c(N2CC3(CC3)C2)c(-c2ccc(F)c(Cl)c2)c(=O)n(-c2cnc3cc(Cl)ccn23)c1=O [Compound I-134] | < 0.1 µM |
| COC1CCN(c2c(Cc3cc(F)c(F)c(F)c3)c(=O)n(-c3cncc(C)c3)c(=O)n2CC#N)CC1 [Compound I-106] | < 0.1 µM |
| N#CCn1c(N2CCC(C(F)(F)F)CC2)c(-c2ccc(F)c(Cl)c2)c(=O)n(-c2cnc3cc(F)ccn23)c1=O [Compound I-153] | < 0.1 µM |
| Cc1cncc(-n2c(=O)c(Cc3cc(F)c(F)c(F)c3)c(-c3ccc(C)c(C)c3)n(C(F)C#N)c2=O)c1 (racemic) [Compound I-048] | 1 to 5 µM |
| CC1(C)CCN(c2c(-c3cccc(C#N)c3)c(=O)n(-c3cncc(Cl)c3)c(=O)n2CC#N)CC1 [Compound I-176] | < 0.1 µM |
| N#CCn1c(N2CC3(C2)CC(F)(F)C3)c(-c2ccc(F)c(Cl)c2)c(=O)n(-c2cnc3cc(F)ccn23)c1=O [Compound I-149] | < 0.1 µM |
| Cc1cncc(-n2c(=O)c(Cc3cc(F)c(F)c(F)c3)c(-c3ccc(C(F)(F)F)c(Cl)c3)n(CC#N)c2=O)c1 [Compound I-031] | < 0.1 µM |
| Cc1cc(-n2c(=O)c(-c3cc(Cl)cc(C(F)(F)F)c3)c(N3CC4(C3)CC(F)(F)C4)n(CC#N)c2=O)cc(=O)[nH]1 [Compound I-201] | 0.1 to 1 µM |
| Cc1cncc(-n2c(=O)c(-c3ccc(F)c(Cl)c3)c(-c3nc4ccccc4s3)n(CC#N)c2=O)c1 [Compound I-120] | < 0.1 µM |

Same assay, conditions: Severe acute respiratory syndrome coronavirus 2, HEK-293T, 72 h; HEK293T/ACE2-TMPRSS2 cells, CPE suppression, CellTiter-Glo 2.0 after 3 days culture; read-out: EC50 (50% SARS-CoV-2 infected cell death inhibitory concentration), class

| SMILES | EC50 |
| --- | --- |
| Cc1cncc(-n2c(=O)c(Cc3cc(F)c(F)c(F)c3)c(N3CCC4(C3)NC(=O)NC4=O)n(CC#N)c2=O)c1 (racemic) [Compound I-095] | 1 to 5 µM |
| Cc1cncc(-n2c(=O)c(Cc3cc(F)c(F)c(F)c3)c(N3CC(F)C3)n(CC#N)c2=O)c1 [Compound I-090] | < 0.1 µM |
| N#CCn1c(N2CCC(F)(F)CC2)c(-c2cccc(C#N)c2)c(=O)n(-c2cncc(Cl)c2)c1=O [Compound I-169] | < 0.1 µM |
| CC1(O)CC2(CN(c3c(-c4ccc(F)c(Cl)c4)c(=O)n(-c4cnc5cc(Cl)ccn45)c(=O)n3CC#N)C2)C1 [Compound I-138] | 0.1 to 1 µM |

Same assay, conditions: Severe acute respiratory syndrome coronavirus 2, HEK-293T; 50% SARS-CoV-2 infected cell death inhibitory concentration; HEK293T/ACE2-TMPRSS2 cells; read-out: EC50

| SMILES | EC50 |
| --- | --- |
| N#CCn1c(N2CC3(C2)CC(F)(F)C3)c(-c2ccc(F)c(Cl)c2)c(=O)n(-c2cnc3cc(F)c(F)cn23)c1=O [Compound I-323] | < 0.1 µM |
| C[C@@H](C#N)n1c(N2CC[C@](O)(C(F)F)C2)c(-c2ccc(F)c(Cl)c2)c(=O)n(-c2cncc(Cl)c2)c1=O (single isomer, unassigned) [Compound I-431] | < 0.1 µM |
| N#CCn1c(N2C[C@@H]3CC[C@H]2C3)c(-c2ccc(F)c(Cl)c2)c(=O)n(-c2cncc(Cl)c2)c1=O (racemic) [Compound I-267] | < 0.1 µM |
| CN(C)c1cnnc(-n2c(=O)c(-c3ccc(F)c(Cl)c3)c(N3CC4(C3)CC(F)(F)C4)n(CC#N)c2=O)c1 [Compound I-219] | 0.1 to 1 µM |
| N#CCn1c(N2CC(O)(C(F)F)C2)c(-c2cc(F)c(F)c(Cl)c2)c(=O)n(-c2cncc(Cl)c2)c1=O [Compound I-333] | < 0.1 µM |

Each molecule was assayed against Recombinant SARS-CoV-2 3CL Protease (Severe acute respiratory syndrome coronavirus 2 (2019-nCoV) (SARS-CoV-2), UniProt P0DTD1) (assay: biochemical). Conditions: 50% SARS-CoV-2 3CL protease inhibitory concentration; read-out: IC50.
Format: biochemical

| SMILES | IC50 |
| --- | --- |
| Cc1cncc(-n2c(=O)c(Cc3cc(F)c(F)c(F)c3)c(-c3ccc(C)c(C)c3)n(C(C)(C)C#N)c2=O)c1 [Compound I-065] | < 0.01 µM |
| N#CCn1c(N2CC3(C2)CC(F)(F)C3)c(-c2ccc(F)c(Cl)c2)c(=O)n(-c2cnc3cc(F)c(F)cn23)c1=O [Compound I-323] | < 0.01 µM |
| N#CCn1c(N2CCC3(CC2)CNC(=O)O3)c(-c2ccc(F)c(Cl)c2)c(=O)n(-c2cncc(Cl)c2)c1=O [Compound I-067] | < 0.01 µM |
| C[C@@H](C#N)n1c(N2CC[C@](O)(C(F)F)C2)c(-c2ccc(F)c(Cl)c2)c(=O)n(-c2cncc(Cl)c2)c1=O (single isomer, unassigned) [Compound I-431] | < 0.01 µM |
| Cc1cncc(-n2c(=O)c(Cc3cc(F)c(F)c(F)c3)c(N3CCC4(C3)NC(=O)NC4=O)n(CC#N)c2=O)c1 (racemic) [Compound I-095] | 0.01 to 0.1 µM |
| N#CCn1c(N2Cc3ccccc3C2)c(C(=O)c2cc(F)c(F)c(F)c2)c(=O)n(-c2cncc(Cl)c2)c1=O [Compound I-165] | 3.8 µM |
| N#CCn1c(N2C[C@@H]3CC[C@H]2C3)c(-c2ccc(F)c(Cl)c2)c(=O)n(-c2cncc(Cl)c2)c1=O (racemic) [Compound I-267] | < 0.01 µM |
| CN(C)c1cnnc(-n2c(=O)c(-c3ccc(F)c(Cl)c3)c(N3CC4(C3)CC(F)(F)C4)n(CC#N)c2=O)c1 [Compound I-219] | 0.01 to 0.1 µM |
| Cc1cncc(-n2c(=O)c(Cc3cc(F)c(F)c(F)c3)c(N3CC(F)C3)n(CC#N)c2=O)c1 [Compound I-090] | 0.01 to 0.1 µM |
| N#CCn1c(N2CC(O)(C(F)F)C2)c(-c2cc(F)c(F)c(Cl)c2)c(=O)n(-c2cncc(Cl)c2)c1=O [Compound I-333] | < 0.01 µM |
| Cc1cc(-n2c(=O)c(-c3cc(F)c(F)c(Cl)c3)c(N3CC4(CCOCC4)C3)n(CC#N)c2=O)cc(=O)[nH]1 [Compound I-032] | < 0.01 µM |
| N#CCn1c(N2CC3(C2)CC(F)(F)C3)c(-c2ccc(F)c(Cl)c2)c(=O)n(-c2cncc(C(F)F)n2)c1=O [Compound I-208] | 0.0018 µM |
| N#CCn1c(N2CCC(F)(F)CC2)c(-c2cccc(C#N)c2)c(=O)n(-c2cncc(Cl)c2)c1=O [Compound I-169] | 0.01 to 0.1 µM |
| Cc1cncc(-n2c(=O)c(Oc3cc(F)c(F)c(F)c3)c(Oc3cc(F)c(F)c(F)c3)n(CC#N)c2=O)c1 [Compound I-010] | > 0.1 µM |
| CC1(O)CC2(CN(c3c(-c4ccc(F)c(Cl)c4)c(=O)n(-c4cnc5cc(Cl)ccn45)c(=O)n3CC#N)C2)C1 [Compound I-138] | 0.01 to 0.1 µM |
| N#CCn1c(N2CC3(CC3)C2)c(-c2ccc(F)c(Cl)c2)c(=O)n(-c2cnc3cc(Cl)ccn23)c1=O [Compound I-134] | < 0.01 µM |
| COC1CCN(c2c(Cc3cc(F)c(F)c(F)c3)c(=O)n(-c3cncc(C)c3)c(=O)n2CC#N)CC1 [Compound I-106] | < 0.01 µM |
| N#CCn1c(N2CCC(C(F)(F)F)CC2)c(-c2ccc(F)c(Cl)c2)c(=O)n(-c2cnc3cc(F)ccn23)c1=O [Compound I-153] | < 0.01 µM |
| Cc1cncc(-n2c(=O)c(Cc3cc(F)c(F)c(F)c3)c(-c3ccc(C)c(C)c3)n(C(F)C#N)c2=O)c1 (racemic) [Compound I-048] | > 0.1 µM |
| CC1(C)CCN(c2c(-c3cccc(C#N)c3)c(=O)n(-c3cncc(Cl)c3)c(=O)n2CC#N)CC1 [Compound I-176] | < 0.01 µM |
| N#CCn1c(N2CC3(C2)CC(F)(F)C3)c(-c2ccc(F)c(Cl)c2)c(=O)n(-c2cnc3cc(F)ccn23)c1=O [Compound I-149] | < 0.01 µM |
| Cc1cncc(-n2c(=O)c(Cc3cc(F)c(F)c(F)c3)c(-c3ccc(C(F)(F)F)c(Cl)c3)n(CC#N)c2=O)c1 [Compound I-031] | < 0.01 µM |
| Cc1cc(-n2c(=O)c(-c3cc(Cl)cc(C(F)(F)F)c3)c(N3CC4(C3)CC(F)(F)C4)n(CC#N)c2=O)cc(=O)[nH]1 [Compound I-201] | < 0.01 µM |
| Cc1cncc(-n2c(=O)c(-c3ccc(F)c(Cl)c3)c(-c3nc4ccccc4s3)n(CC#N)c2=O)c1 [Compound I-120] | < 0.01 µM |
